Results: US7387788B1 (priority 2003, dated 2008)

Assays:
[1] = In vitro skin permeation, Franz cells, finite dose, non-occlusive, pig ear skin; conditions: topical or ocular, 10 mg, pH 7.4
Protocol: A finite dose (for example: 4-7 mg/cm^2) of formulation is applied to the outer surface of the skin and drug absorption is measured by monitoring its rate of appearance in the receptor solution bathing the inner surface of the skin. Data defining total absorption, rate of absorption, as well as skin content can be accurately determined in this model.
Pig skin can be prepared essentially as described below for human skin.
Prior to the experiment, skin was removed from the bag, placed in water (approximately 37° C.) for five minutes, and then cut into sections large enough to fit on 1 cm^2 Franz Cells (Crown Glass Co., Somerville, N.J.). Briefly, skin samples were prepared as follows. A small volume of phosphate buffered saline (PBS) was used to cover the bottom of the Petri dishes. Skin disks generally depleted of fat layers were placed in the Petri dishes for hydration. A Stadie-Riggs manual tissue microtome was used for slicing excised skin samples. Approximately 2 mL of PBS was placed into the middle cavity of the microtome as slicing lubricant. Skin disks were placed, dermal side up, into the middle cavity of the microtome. Filter paper was soaked with PBS, inserted in the cavity just above the skin disk. The filter paper prevented the dermis from sliding onto the top of the cutting block and helped to insure more precise cutting. […]

[2] = In vitro skin permeation, Franz cells, frozen human abdominal skin; format: in vitro ADME; conditions: Example 7
Protocol: Percutaneous absorption was measured using the in vitro cadaver skin finite dose technique. Cryo-preserved, human cadaver trunk skin was obtained from a skin bank and stored in water-impermeable plastic bags at <−70° C. until used.
Briefly, skin samples were prepared as follows.
The dermal cell was filled with receptor solution.
Experiments were performed under non-occlusive conditions.
Analysis of the samples was performed by HPLC.
Twenty-five micro liters of sample were injected.
Formulations 7.1 and 7.3 were made essentially as described above in the Materials and Methods. Formulation 7.1 and 7.2 are identical, but formulation 7.1 was tested on pig ear skin, and formulation 7.2 was tested on frozen human abdominal skin. Formulation 7.3 (Reference marketed product) was also tested on frozen human abdominal skin. Permeation studies used Franz cells as described in the Materials and Methods.
Individual gel amounts applied to tested skin samples were approximately 10 mg. Studies were performed according to OECD (Organization for Economic Cooperation and Development) guidelines (Organization for Economic Co-operation and Development (OECD), Environment Directorate. “Guidance document for the conduct of skin absorption studies,” OECD series on testing and assessment, No. 28. Paris, version 5 Mar. 2004).

[3] = cited from earlier work
[4] = in an alcohol/water solvent; cited from earlier work
[5] = oral administration; cited from earlier work

Structure (SMILES)	bioavailability at 16 h, 1.5 % FBE [1]	change of transdermal in vitro bioavailability, frozen human skin versus fresh pig skin ([2]; p=0.009)	bioavailability at 16 h, 1.5 % FBE ([2]; topical or ocular, 10 mg, pH 7.4, frozen human skin, gel of Table 13 (formulation 7.2))	Oral bioavailability [3]	apparent pKa of nicotine [4]	fraction of the drug absorbed when administered orally [5]
CN1CCC[C@H]1c1cccnc1 [nicotine, 1-methyl-2-(3-pyridyl)pyrrolidone]	38%	−52%	18%	about 30%	7.7	
NCCCC(O)(P(=O)(O)O)P(=O)(O)O [sodium alendronate]						about 0.6%
